# Patent publication US5843925A, “Methods for inhibiting angiogenesis, proliferation of endothelial or tumor cells and tumor growth” (American Cyanamid Company, priority 1994, dated 1998)
# Structures can show the parent of a compound that is named as a salt. Where two headings read alike, the source gives them in different places.
# Tested on: Adult Bovine Aortic Endothelial (ABAE) cell line
# Assay: Antiproliferative activity in Adult Bovine Aortic Endothelial (ABAE) cell line, PROTOCOL 3
# Format: cell-based
# Settings: for IC50: Bos taurus, 96 h, ABAE cells
# Description: The antiproliferative activity of the compounds of Formula I in an Adult Bovine Aortic Endothelial (ABAE) cell line and in Human Tumor cells lines is evaluated in three similar assays that measure growth inhibition. The assays are identified as follows:
# PROTOCOLS 1, 2, and 3 are described in greater detail hereinbelow. In general, according to PROTOCOLS 1 and 2, the target ABAE and/or Human Tumor cells are exposed to the compound of Formula I for 48 hours. PROTOCOL 3 exposes ABAE cells to the compounds for 4 days. A detailed description of the protocol is as follows:
# Antiproliferative Activity in Adult Bovine Aortic Endothelial (ABAE) Cell Line
# ABAE cells are grown in DMEM media (Mediatech Washington, D.C.) supplemented with 10% calf serum (Hyclone). ABAE cells are plated in 24-well dishes at 8,000 cells/well, followed by the addition of increasing concentrations of 7-[substituted amino]-9-[(substituted glycyl)amido]-6-demethyl-6-deoxytetra-cyclines. After four days, the cells are detached and counted. […] The growth inhibition (I) as % of control is calculated as follows: [formula] wherein: Nc is the number of cells in untreated wells;
# Nt is the number of cells in treated wells;
# No is the number of plated cells.
# IC50 of growth inhibition is determined from the sets of I values plotted by Kaleidograph software (Abelbeck Software).
# Table 2 presents the results depicting the antiproliferative activity of the compounds of Formula I against an adult bovine aortic endothelial cell line (ABAE), as evaluated by PROTOCOL 1 and PROTOCOL 3. The results are presented in terms of IC50 and are as follows.
structure (smiles),measurement,setting,value
"CN(C)CC(=O)Nc1cc(N(C)C)c2c(c1O)C(=O)C1=C(O)[C@]3(O)C(=O)C(C(N)=O)=C(O)[C@@H](N(C)C)C3CC1C2 (stereo partly drawn) [Example 2, [4S-(4a,12aa-1-4,7-Bis(dimethylamino)-9-[[(dimethylamino)acetyl]amino]]-1,4,,4a,5,5a,6,11,12a-octahvdro-3,10,12,12a-tetrahydroxy-1,11-dioxo-2-napththacenecarboxamidedihydrochloride]",activity upon incubation with cells,4 day assay (Protocol 3),retains its activity
same,IC50,"4 day assay (Protocol 3), FIG. 1 text, read-out: inhibits 50% of cell growth at",~3 µg/mL
same,IC50,"4 days exposure, read-out: IC50 PROTOCOL 3",3 µg/mL
